Drawing on patent US10513521B2, “Compositions and methods for inhibiting BMP” (The Brigham and Women's Hospital, Inc., priority 2014, dated 2019), this text covers IC50 for two compounds.

The structures appear in SMILES notation. Numbering of substitutions follows the chain as printed. “And” between values parts separate entries of the source, which are not always exact repeats. Equal values may be shown once.

One test deals with ALK3 (Homo sapiens, UniProt P36894). Nature of the test: TR-FRET enzymatic ALK kinase assay, ALK3.
Chain of ALK3 (P36894 24-532): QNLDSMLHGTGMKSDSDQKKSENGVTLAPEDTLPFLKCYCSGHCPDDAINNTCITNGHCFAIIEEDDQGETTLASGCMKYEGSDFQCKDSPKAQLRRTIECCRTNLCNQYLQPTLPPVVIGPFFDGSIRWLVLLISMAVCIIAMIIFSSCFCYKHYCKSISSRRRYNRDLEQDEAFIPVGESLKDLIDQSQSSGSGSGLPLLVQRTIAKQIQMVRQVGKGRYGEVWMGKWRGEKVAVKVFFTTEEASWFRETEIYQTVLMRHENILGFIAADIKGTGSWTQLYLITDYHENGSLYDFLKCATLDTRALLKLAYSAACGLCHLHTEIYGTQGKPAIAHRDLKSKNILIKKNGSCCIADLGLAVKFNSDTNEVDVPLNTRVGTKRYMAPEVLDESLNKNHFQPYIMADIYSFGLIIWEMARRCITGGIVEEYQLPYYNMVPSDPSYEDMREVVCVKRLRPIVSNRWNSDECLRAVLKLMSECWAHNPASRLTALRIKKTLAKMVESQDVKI
The subject of a further test is BMP4. Kind of test: BMP4 HTRF assay. It is filed as cell-based.
Test [1] has as its target T1, ALK2 (Homo sapiens, UniProt Q04771).
T1 sequence (Q04771 21-509): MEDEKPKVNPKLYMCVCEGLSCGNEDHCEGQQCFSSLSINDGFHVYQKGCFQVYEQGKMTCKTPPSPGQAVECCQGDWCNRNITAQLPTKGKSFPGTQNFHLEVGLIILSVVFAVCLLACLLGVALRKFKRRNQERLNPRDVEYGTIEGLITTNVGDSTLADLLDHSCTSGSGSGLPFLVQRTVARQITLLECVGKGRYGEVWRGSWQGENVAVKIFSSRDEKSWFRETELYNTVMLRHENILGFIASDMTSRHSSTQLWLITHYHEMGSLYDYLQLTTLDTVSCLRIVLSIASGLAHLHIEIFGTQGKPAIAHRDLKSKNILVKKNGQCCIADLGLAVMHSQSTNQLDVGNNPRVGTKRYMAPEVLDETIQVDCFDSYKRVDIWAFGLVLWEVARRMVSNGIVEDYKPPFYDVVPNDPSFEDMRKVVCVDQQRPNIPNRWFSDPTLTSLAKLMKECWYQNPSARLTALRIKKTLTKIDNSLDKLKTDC
Kind of test: TR-FRET enzymatic ALK kinase assay, ALK2.
Description: (§1) Briefly, the ALKs enzymatic assay was initiated by dispense 2.5 μl enzyme in 1× kinase reaction buffer. The assay plate was then added with compounds followed by incubation at room temperature for 10 minutes. Then 2.5 μl/well substrate was added.

Test [2] concerns the target T2, ALK1 (Bos taurus, UniProt A4FUX2).
T2 construct: The BAOEC cell line was employed for the measurement of ALK1 activity using BMP9 as the agonist; host or cells: BAOEC (bovine aortic endothelial cells)
T2 sequence (A4FUX2 23-503): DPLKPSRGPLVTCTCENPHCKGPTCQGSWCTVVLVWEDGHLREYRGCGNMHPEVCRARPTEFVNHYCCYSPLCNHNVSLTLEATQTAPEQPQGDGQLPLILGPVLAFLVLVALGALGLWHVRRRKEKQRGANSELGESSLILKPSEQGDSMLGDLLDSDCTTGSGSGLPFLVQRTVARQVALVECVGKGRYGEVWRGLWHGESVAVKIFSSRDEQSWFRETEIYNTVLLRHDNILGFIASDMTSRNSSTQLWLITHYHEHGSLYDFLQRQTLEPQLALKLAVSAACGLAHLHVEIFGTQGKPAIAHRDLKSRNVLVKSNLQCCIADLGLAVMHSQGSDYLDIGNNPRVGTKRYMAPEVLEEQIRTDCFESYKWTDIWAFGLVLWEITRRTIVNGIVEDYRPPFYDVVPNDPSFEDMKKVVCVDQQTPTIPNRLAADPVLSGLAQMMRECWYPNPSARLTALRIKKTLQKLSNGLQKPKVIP
Nature of the test: HTRF pSMAD1 cell-based ALK1 assay (BAOEC cells, BMP9 as agonist). On the set-up: species or system Bovine. On the procedure: 2. HTRF Cell-Based ALK1 and ALK2 Assays in 384-Well Plate Format We have developed a cell based ALK1 kinase assay and a cell-based ALK2 assay. The BAOEC cell line was employed for the measurement of ALK1 activity using BMP9 as the agonist. The C2C12 cell line was selected for the measurement of ALK2 activity using BMP6 as the agonist. The kinase specificity was defined by the specific cell line and agonist. The kinase activity was determined by the status of SMD 1/5/8 phosphorylation stimulated by the agonist.
HyClone Fetal Bovine Serum was obtained from GE healthcare life sciences (Logan, Utah). BMP6 and BMP9 were purchased from R&D System. […] The compound plates and the white solid MB assay plates were purchased from Greiner Bio-one (Monroe, N.C.).
HTRF optimization experiments were performed in 384 well plate format. […] Pre-starved cells were then plated in 384 well plate in the starvation medium (containing in 0.1% FBS). After 4 hours, compounds were added to the assay plate and incubated for 30 minutes. The assay plate was then added with BMP6 for C2C12 cells or BMP9 for BAOEC cells and incubated for 30 minutes.
HTRF assay was performed to measure the status of SMAD 1 phosphorylation after stimulated with the agonist (Table 3). This HTRF phospho SMAD1 cell assay was developed and optimized for the homogenous detection of phospho SMAD 1 levels in cells. […] The plate was incubated at room temperature for overnight.

For the next test, the target named is ALK6 (Homo sapiens, UniProt O00238). Nature of the test: TR-FRET enzymatic ALK kinase assay, ALK6.
Chain of ALK6 (O00238 14-502): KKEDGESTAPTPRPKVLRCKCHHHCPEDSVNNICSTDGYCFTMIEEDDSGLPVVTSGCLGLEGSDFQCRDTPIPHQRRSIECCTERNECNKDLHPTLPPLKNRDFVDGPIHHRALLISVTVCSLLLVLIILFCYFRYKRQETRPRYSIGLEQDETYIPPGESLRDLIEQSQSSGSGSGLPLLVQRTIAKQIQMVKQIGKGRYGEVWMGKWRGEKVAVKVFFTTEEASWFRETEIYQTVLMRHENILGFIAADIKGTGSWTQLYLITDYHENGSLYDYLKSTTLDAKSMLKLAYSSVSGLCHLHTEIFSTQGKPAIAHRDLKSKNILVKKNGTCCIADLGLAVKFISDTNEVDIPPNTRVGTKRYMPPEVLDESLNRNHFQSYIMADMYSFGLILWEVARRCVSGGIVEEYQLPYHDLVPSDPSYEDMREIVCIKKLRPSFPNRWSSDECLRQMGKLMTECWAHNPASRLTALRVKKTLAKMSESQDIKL
Test [3] is described as follows: Cell-based assay, TGFb1 (Cell IC50).
In test [4] the target is ALK1 (Homo sapiens, UniProt P37023). Kind of test: TR-FRET enzymatic ALK kinase assay, ALK1.
Chain of ALK1 (Homo sapiens, UniProt P37023) (P37023 22-503): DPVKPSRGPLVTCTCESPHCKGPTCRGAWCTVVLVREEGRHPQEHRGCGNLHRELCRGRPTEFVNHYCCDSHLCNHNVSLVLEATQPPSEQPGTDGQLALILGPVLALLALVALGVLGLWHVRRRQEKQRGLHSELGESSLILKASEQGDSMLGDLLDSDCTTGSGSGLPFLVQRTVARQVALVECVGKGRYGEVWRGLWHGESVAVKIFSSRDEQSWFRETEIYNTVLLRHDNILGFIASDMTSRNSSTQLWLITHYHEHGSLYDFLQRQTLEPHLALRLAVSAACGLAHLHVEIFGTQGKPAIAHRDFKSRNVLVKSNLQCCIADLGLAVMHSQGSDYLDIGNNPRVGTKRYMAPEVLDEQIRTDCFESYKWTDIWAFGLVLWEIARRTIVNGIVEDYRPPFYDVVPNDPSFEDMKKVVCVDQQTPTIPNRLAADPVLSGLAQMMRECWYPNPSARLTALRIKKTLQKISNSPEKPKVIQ
Description: as §1
The next test concerns the target T3, ALK4 (Homo sapiens, UniProt P36896).
T3 sequence (P36896 24-505): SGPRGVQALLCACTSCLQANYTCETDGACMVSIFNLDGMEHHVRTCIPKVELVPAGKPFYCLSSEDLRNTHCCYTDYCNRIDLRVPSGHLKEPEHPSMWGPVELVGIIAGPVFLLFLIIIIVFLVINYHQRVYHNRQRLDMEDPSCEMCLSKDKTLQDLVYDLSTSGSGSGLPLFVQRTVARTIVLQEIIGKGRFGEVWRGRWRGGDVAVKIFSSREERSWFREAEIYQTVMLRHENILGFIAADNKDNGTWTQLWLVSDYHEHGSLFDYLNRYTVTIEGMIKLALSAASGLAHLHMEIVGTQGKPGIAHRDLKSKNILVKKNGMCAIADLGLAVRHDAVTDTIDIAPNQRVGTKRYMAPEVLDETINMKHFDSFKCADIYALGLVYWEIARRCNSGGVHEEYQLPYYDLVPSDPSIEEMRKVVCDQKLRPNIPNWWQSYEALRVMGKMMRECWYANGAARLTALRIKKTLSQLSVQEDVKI
Kind of test: TR-FRET enzymatic ALK kinase assay, ALK4.

Test [5] deals with T4, ALK2 (Mus musculus, UniProt P37172).
T4 construct: The C2C12 cell line was selected for the measurement of ALK2 activity using BMP6 as the agonist; host or cells: C2C12
T4 sequence (P37172 21-509): T1 sequence (Q04771 21-509) with M1V, P10Q, L121I, D162E, P310S
Nature of the test: HTRF pSMAD1 cell-based ALK2 assay (C2C12 cells, BMP6 as agonist). A digest of the protocol: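 Phospho-SMAD1 HTRF readout, detection incubated overnight at room temperature. Before that: starved cells in 0.1% FBS for 4 h, 30 min compound pretreatment, then 30 min agonist, BMP6 on C2C12 or BMP9 on BAOEC.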

A further test addresses T5, ALK5 (Homo sapiens, UniProt P36897).
T5 sequence (P36897 34-503): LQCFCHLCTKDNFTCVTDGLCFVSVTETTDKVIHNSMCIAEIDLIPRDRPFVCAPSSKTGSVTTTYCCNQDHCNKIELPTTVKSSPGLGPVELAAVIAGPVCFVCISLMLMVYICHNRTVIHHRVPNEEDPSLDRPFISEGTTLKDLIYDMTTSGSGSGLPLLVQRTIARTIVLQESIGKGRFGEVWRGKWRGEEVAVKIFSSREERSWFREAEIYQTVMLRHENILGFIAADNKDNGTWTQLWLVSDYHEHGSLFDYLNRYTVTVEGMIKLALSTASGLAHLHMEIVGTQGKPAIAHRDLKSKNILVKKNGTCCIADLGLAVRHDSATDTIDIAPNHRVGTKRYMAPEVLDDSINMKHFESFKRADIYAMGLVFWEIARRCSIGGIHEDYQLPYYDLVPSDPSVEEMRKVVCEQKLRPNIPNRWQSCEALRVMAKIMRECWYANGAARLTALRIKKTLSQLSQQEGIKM
Kind of test: TR-FRET enzymatic ALK kinase assay, ALK5.

Test [6] addresses T4, ALK2. Nature of the test: In-cell Western ALK2 assay (C2C12 cells, BMP6 as agonist). It is filed as cell-based. The note with it: read-out: BMP6 ICW. An excerpt:
3. In-Cell Western ALK1 and ALK2 Assays in 384-Well Plate Format.
We also optimized cell-based In-cell Western assays for measurements of ALK1 and ALK2 activities that were used to determine compound activities in these two kinases. The cell lines and agonists used were same as described in above cell-based HTRF ALK1 and ALK2 assays. The initial cell plating and compound treatment were also same. The main difference is the detection of phosphorylation status of SMAD1. In t-cell Western assay, the cells were fixed and phosphorylation status of SMAD1 was detected by the ELISA instead of using the HTRF assay kit in above assay.
HyClone Fetal Bovine Serum was obtained from GE healthcare life sciences (Logan, Utah). BMP6 and BMP9 were purchased from R&D System (R&D). Anti-P-SMAD 1/5/8 rabbit mAb and anti-rabbit IgG, HRP-Linked antibody were purchased from Cell Signaling Technology (Danvers, Mass.). BioFX Chemiluminescent Ultra-Sensitive HRP Microwell Substrate ECL Reagent was obtained from SurModics (Edina, Minn.). The compound plates and the white solid MB assay plates were from Greiner Bio-one (Monroe, N.C.).
Similarly as described in above HTRF cell-based assay, this assay was performed in 384 well plate format. […] Pre-starved cells were then plated in 384 well plate in the starvation medium (containing in 0.1% FBS). After 4 hours, compound dilutions in DMSO were added to the assay plate and incubated for 30 minutes. The assay plate was then added with BMP6 for C2C12 cells or BMP9 for BAOEC cells and incubated for 30 minutes.
The cells were washed in the plate washer with PBS and blocked with 2% BSA in PBS for 1 h at room temperature on the rotator. After removing the blocking reagent, the cells were incubated with the anti-p-SMAD1 antibody in 2% BSA in PBS for overnight at 4° C. on rotator. The cells were washed with PBS in the plate washer and incubated with HRP conjugated second antibody in 2% BSA in PBS for 1 hour at room temperature. After a cell wash with PBS, ECL detection reagent was added and the plate was read in the luminesce mode in the ViewLux plate reader.

Description for ALK3: as §1
Description for ALK4: as §1
Description for ALK5: Six ALK kinase enzyme assays were developed for determination of compound activities on ALK1, ALK2, ALK3, ALK4, ALK5 and ALK6.
as §1
Description for ALK6: as §1

Take `C[C@@H]1CNC[C@H](C)N1c1ccc(-c2cnc3c(-c4ccc(CO)c5ccccc45)cnn3c2)cc1` [Compound 22, (4-(6-(4-((2R,6S)-2,6-dimethylpiperazin-1-yl)phenyl)pyrazolo[1,5-a]pyrimidin-3-yl)naphthalen-1-yl)methanol]: the IC50 against ALK3 was found to be 34 nM; in the test on BMP4, 820 nM; on ALK2 [1], 9.7 nM; on ALK1 [2], 33 nM; against ALK6, 647 nM; in test [3], 243 nM. Moreover, the IC50 against ALK1 [4] stood at 4 nM; on ALK4, 1360 nM; on ALK2 [5] (HTRF assay, BMP6 as agonist, C2C12 cells, read-out: BMP6 HTRF), 47 nM; on ALK2 [5] (cell-based assay, BMP6, read-out: Cell IC50 BMP6), 2 nM; at ALK5, 4660 nM.

Regarding `CS(=O)(=O)c1cccc(-c2cnn3cc(-c4ccc(C5CCCCN5)cc4)cnc23)c1` (stereo not drawn) [Compound 137, 3-(3-(methylsulfonyl)phenyl)-6-(4-(piperidin-2-yl)phenyl)pyrazolo[1,5-a]pyrimidine], the IC50 at ALK3 is > 10000 nM; at ALK2 [1] it was 75 nM; on ALK6 it was > 10000 nM; on ALK2 [6], 150 nM and 250 nM; against ALK1 [4], 250 nM; on ALK4, > 10000 nM. For the same compound, the IC50 at ALK5 was > 10000 nM.
